Earlier results on one compound are cited in US10828268B2 (priority 2013, dated 2020).

For this series the following is noted: human, taken orally.

On to `COc1cc(/C=C/C(=O)CC(=O)/C=C/c2ccc(O)c(OC)c2)ccc1O` [curcumin], for which the oral bioavailability result was “poorly bioavailable”.
